The target in assay [1] is T1, von Hippel-Lindau disease tumor suppressor/Histone-lysine N-methyltransferase EHMT1 (Homo sapiens, UniProt Q9H9B1+P40337). Nature of the assay: PROTAC activity at GLP/VHL in human 22Rv1 cells assessed as induction of GLP degradation at 0.3 uM incubated for 24 hrs by Western blot analysis relative to control. The assay is classed as cell-based. On the technique in general: In western blotting, separated proteins are transferred to a membrane and probed.
Target sequence in this assay (P40337 whole entry partner): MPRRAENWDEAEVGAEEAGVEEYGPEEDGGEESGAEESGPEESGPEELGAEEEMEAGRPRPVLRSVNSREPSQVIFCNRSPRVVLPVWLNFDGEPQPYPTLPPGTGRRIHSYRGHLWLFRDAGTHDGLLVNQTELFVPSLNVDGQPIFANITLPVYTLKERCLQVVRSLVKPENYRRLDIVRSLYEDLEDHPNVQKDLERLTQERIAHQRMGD
Target sequence in this assay (Q9H9B1 2-1298 limits assumed): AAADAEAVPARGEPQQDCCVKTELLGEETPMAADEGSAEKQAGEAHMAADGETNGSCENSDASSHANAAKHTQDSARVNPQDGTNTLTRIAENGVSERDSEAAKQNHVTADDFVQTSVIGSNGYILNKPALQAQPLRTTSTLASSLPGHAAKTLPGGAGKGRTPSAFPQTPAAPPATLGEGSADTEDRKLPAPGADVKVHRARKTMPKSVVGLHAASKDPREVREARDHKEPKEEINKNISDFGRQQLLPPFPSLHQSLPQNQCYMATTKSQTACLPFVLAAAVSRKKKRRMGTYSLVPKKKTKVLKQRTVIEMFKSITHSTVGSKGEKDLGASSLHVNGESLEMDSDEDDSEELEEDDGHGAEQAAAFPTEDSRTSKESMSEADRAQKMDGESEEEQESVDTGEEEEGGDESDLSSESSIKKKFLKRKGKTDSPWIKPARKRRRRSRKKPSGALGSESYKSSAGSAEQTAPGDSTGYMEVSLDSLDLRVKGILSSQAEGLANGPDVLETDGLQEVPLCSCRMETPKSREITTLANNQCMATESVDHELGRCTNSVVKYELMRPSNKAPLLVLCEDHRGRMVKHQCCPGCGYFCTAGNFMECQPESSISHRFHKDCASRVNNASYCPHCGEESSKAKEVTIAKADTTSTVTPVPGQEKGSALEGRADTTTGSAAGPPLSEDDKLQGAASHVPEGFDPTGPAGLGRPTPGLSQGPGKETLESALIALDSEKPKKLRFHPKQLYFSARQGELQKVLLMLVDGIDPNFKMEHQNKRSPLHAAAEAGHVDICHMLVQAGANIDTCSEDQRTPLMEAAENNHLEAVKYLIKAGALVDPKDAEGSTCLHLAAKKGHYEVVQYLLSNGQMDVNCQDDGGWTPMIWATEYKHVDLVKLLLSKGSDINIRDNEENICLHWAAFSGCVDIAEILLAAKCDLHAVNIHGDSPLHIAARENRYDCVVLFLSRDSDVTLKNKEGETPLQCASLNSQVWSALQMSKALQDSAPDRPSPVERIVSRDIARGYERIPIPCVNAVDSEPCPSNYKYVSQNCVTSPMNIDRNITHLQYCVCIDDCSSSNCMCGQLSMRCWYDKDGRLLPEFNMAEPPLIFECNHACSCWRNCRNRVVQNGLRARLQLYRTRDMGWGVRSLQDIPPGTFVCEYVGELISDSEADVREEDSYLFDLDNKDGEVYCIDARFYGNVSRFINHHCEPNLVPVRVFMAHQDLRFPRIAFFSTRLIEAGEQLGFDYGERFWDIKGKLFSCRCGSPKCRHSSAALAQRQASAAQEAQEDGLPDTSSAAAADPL

Assay [2] addresses Protein arginine N-methyltransferase 1 (Homo sapiens) (UniProt Q99873). Nature of the assay: Inhibition of PRMT1 (unknown origin) at 10 uM relative to control.
The next assay concerns NCI-H1299. The experiment in a line: Cytotoxicity against human NCI-H1299 cells assessed as growth inhibition incubated for 8 days. Conditions: NCI-H1299, 192 h, time 8 day. It is filed as functional.
The target of assay [3] is Histone-lysine N-methyltransferase EZH1 (Homo sapiens) (UniProt Q92800). Nature of the assay: Inhibition of EZH1 (unknown origin) at 10 uM relative to control.
For another assay, the species on record is Homo sapiens. Nature of the assay: Inhibition of SET6 (unknown origin) at 10 uM relative to control.
In assay [4] the target is Protein arginine N-methyltransferase 7 (Homo sapiens) (UniProt Q9NVM4). The experiment in a line: Inhibition of PRMT7 (unknown origin) at 10 uM relative to control.
Assay [5] concerns the target T2, von Hippel-Lindau disease tumor suppressor/Histone-lysine N-methyltransferase EHMT2 (Homo sapiens, UniProt Q96KQ7+P40337). The experiment in a line: PROTAC activity at G9a/VHL in human 22Rv1 cells assessed as induction of G9a degradation at 3 uM incubated for 24 hrs by Western blot analysis relative to control. It is filed as cell-based.
Target sequence in this assay (P40337 whole entry partner): as the sequence (P40337 whole entry partner) above
Target sequence in this assay (Q96KQ7 2-1210 limits assumed): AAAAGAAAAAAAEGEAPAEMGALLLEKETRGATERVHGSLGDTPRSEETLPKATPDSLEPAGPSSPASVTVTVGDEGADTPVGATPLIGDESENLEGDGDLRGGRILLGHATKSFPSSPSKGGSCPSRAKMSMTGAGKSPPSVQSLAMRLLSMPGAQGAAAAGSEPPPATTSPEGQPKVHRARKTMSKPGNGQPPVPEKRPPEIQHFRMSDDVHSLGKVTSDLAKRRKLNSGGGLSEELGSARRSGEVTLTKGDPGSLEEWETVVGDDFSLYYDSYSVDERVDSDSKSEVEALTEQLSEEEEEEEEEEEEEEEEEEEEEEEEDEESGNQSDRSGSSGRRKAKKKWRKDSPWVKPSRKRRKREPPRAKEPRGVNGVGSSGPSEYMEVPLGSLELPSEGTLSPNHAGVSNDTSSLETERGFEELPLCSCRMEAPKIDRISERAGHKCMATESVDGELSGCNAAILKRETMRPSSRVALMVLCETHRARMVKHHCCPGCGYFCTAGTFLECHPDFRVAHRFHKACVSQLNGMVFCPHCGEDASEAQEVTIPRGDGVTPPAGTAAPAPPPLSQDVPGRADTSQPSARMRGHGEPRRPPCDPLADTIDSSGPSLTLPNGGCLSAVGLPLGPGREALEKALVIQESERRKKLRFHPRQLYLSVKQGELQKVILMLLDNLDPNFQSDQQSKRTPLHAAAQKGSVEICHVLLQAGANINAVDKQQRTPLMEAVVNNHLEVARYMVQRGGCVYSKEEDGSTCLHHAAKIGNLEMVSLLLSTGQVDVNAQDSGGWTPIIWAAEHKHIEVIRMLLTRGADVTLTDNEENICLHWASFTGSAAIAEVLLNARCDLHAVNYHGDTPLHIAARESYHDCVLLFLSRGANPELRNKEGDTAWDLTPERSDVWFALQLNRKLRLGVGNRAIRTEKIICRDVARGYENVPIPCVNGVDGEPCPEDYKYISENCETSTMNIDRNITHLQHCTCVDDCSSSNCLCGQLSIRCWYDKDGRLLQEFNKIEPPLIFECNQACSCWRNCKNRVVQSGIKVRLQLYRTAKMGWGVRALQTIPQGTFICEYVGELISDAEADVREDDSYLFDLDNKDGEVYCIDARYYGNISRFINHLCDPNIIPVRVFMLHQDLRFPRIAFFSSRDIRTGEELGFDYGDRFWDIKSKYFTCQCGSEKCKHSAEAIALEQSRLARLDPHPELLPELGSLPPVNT
For assay [6], the target named is Histone-lysine N-methyltransferase SMYD3 (Homo sapiens) (UniProt Q9H7B4). The experiment in a line: Inhibition of SMYD3 (unknown origin) at 10 uM relative to control.
Assay [7] deals with T1, von Hippel-Lindau disease tumor suppressor/Histone-lysine N-methyltransferase EHMT1. The experiment in a line: PROTAC activity at GLP/VHL in human NCI-H1299 cells assessed as induction of GLP degradation at 3 uM incubated for 24 hrs by Western blot analysis. It is filed as cell-based.
Target sequence in this assay (P40337 whole entry partner): as the sequence (P40337 whole entry partner) above
Target sequence in this assay (Q9H9B1 2-1298 limits assumed): as the sequence (Q9H9B1 2-1298 limits assumed) above
For assay [8] the target is unchanged. Nature of the assay: PROTAC activity at GLP/VHL in human K562 cells assessed as induction of GLP degradation at 3 uM incubated for 24 hrs by Western blot analysis. It is filed as cell-based.
Target sequence in this assay (P40337 whole entry partner): as the sequence (P40337 whole entry partner) above
Target sequence in this assay (Q9H9B1 2-1298 limits assumed): as the sequence (Q9H9B1 2-1298 limits assumed) above
Assay [9] has as its target T2, von Hippel-Lindau disease tumor suppressor/Histone-lysine N-methyltransferase EHMT2. The experiment in a line: PROTAC activity at G9a/VHL in human 22Rv1 cells assessed as induction of G9a degradation incubated for 24 hrs by Western blot analysis. The assay is classed as cell-based.
In assay [10] the target is Protein arginine N-methyltransferase 3 (Homo sapiens) (UniProt O60678). The experiment in a line: Inhibition of PRMT3 (unknown origin) at 10 uM relative to control.
Assay [11] has as its target Histone-lysine N-methyltransferase SUV39H2 (Homo sapiens) (UniProt Q9H5I1). Nature of the assay: Inhibition of SUV39H2 (unknown origin) at 10 uM relative to control.
The test system of the next assay is K562. The experiment in a line: Cytotoxicity against human K562 cells assessed as reduction in cell viability incubated for 8 days. The assay is classed as functional, cell-based. Conditions: K562, 192 h.
Assay [12] concerns the target T1, von Hippel-Lindau disease tumor suppressor/Histone-lysine N-methyltransferase EHMT1. The experiment in a line: PROTAC activity at GLP/VHL in human 22Rv1 cells assessed as induction of GLP degradation at 3 uM measured at 24 to 48 hrs by Western blot analysis. The conditions noted are these: time 24-48 hrs. It is filed as cell-based.
Target sequence in this assay (P40337 whole entry partner): as the sequence (P40337 whole entry partner) above
Target sequence in this assay (Q9H9B1 2-1298 limits assumed): as the sequence (Q9H9B1 2-1298 limits assumed) above
The target in assay [13] is T2, von Hippel-Lindau disease tumor suppressor/Histone-lysine N-methyltransferase EHMT2. Nature of the assay: PROTAC activity at G9a/VHL in human K562 cells assessed as induction of G9a degradation at 3 uM incubated for 24 hrs by Western blot analysis. The assay is classed as cell-based.
Target sequence in this assay (P40337 whole entry partner): as the sequence (P40337 whole entry partner) above
Target sequence in this assay (Q96KQ7 2-1210 limits assumed): as the sequence (Q96KQ7 2-1210 limits assumed) above
For assay [14], the target named is T1, von Hippel-Lindau disease tumor suppressor/Histone-lysine N-methyltransferase EHMT1. The experiment in a line: PROTAC activity at GLP/VHL in human 22Rv1 cells assessed as induction of GLP degradation incubated for 24 hrs by Western blot analysis. It is filed as cell-based.
The target in assay [15] is PRMT5/MEP50 complex (Homo sapiens) (UniProt O14744+Q9BQA1). Nature of the assay: Inhibition of PRMT5/MEP50 (unknown origin) at 10 uM relative to control. It is filed as protein-complex assay.
The target of assay [16] is T2, von Hippel-Lindau disease tumor suppressor/Histone-lysine N-methyltransferase EHMT2. The experiment in a line: PROTAC activity at G9a/VHL in human 22Rv1 cells assessed as induction of G9a degradation at 1 uM pretreated with VHL-1 for 2 hrs followed by compound administration and measured after 24 hrs by Western blot analysis. The assay is classed as cell-based.
Target sequence in this assay (P40337 whole entry partner): as the sequence (P40337 whole entry partner) above
Target sequence in this assay (Q96KQ7 2-1210 limits assumed): as the sequence (Q96KQ7 2-1210 limits assumed) above

Activity calls are given as the source filed them. No cut-off for these calls is given here.

Protein arginine N-methyltransferase 7 (Homo sapiens), sequence (Q9NVM4 whole entry): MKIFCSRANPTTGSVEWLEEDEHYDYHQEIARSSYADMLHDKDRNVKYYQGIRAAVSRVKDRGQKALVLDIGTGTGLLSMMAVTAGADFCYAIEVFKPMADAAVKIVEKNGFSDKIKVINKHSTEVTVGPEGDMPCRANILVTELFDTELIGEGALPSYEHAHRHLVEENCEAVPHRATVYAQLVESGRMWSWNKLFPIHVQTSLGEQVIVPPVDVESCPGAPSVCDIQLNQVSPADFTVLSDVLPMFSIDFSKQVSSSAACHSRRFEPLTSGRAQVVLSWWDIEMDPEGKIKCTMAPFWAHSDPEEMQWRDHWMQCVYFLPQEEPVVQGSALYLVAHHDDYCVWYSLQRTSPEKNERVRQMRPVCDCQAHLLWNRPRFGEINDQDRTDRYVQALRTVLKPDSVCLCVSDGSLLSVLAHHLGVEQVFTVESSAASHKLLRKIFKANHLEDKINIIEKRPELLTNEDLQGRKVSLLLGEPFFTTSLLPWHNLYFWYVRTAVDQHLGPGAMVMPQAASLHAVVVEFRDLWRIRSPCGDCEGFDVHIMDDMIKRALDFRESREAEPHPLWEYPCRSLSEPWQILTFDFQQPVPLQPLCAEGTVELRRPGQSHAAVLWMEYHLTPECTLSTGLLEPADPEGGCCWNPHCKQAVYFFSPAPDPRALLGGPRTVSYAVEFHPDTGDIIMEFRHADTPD
Histone-lysine N-methyltransferase SMYD3 (Homo sapiens), sequence (Q9H7B4 whole entry): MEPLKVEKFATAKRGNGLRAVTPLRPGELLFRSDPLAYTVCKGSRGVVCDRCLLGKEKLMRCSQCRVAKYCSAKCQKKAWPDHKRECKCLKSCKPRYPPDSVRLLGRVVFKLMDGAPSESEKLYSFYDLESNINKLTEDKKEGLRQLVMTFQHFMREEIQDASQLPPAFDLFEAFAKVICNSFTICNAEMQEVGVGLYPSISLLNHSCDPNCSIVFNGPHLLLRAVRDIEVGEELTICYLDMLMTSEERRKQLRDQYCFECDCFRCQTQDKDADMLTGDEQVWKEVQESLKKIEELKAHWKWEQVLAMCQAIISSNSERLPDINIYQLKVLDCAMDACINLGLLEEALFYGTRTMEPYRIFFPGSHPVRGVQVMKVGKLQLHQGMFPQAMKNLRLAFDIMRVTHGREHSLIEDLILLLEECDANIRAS
Protein arginine N-methyltransferase 1 (Homo sapiens), sequence (Q99873 whole entry, looked up): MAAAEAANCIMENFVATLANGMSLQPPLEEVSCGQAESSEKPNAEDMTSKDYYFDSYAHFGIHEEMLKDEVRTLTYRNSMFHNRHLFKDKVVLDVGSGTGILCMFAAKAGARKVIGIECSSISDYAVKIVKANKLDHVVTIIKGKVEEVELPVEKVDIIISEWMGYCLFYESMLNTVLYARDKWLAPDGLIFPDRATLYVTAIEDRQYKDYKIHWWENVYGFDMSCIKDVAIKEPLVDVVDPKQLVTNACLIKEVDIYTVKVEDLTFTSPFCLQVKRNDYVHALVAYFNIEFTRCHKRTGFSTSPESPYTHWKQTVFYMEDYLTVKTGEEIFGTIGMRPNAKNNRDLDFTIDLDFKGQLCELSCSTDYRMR

The Emax is the size of the effect at its maximum, as opposed to the concentration needed. The term inhibition denotes the share of the control response that was lost under treatment. For orientation: GI50 means the concentration giving 50% growth inhibition. As a reminder, the DC50 is the concentration giving 50% degradation. One may read the IC50 as the point on the concentration scale where inhibition reaches its midpoint. As to `COc1cc2c(NC3CCN(CCCC(=O)NCCCCCCCCCCCC(=O)N[C@H](C(=O)N4C[C@H](O)C[C@H]4C(=O)NCc4ccc(-c5scnc5C)cc4)C(C)(C)C)CC3)nc(N3CCC(F)(F)CC3)nc2cc1OCCCN1CCCC1`, the figures for the Emax in [1] and in assay [5] were 49% and more than 99%, respectively. For the same compound, the inhibition (in assay [2]; in assay [3]; in the assay listed under Homo sapiens; in assay [4]; in assay [6]; in assay [10]) was more than 50% each time. The inhibition in assay [11] and in assay [15] was more than 50% throughout. Besides, the concentration for 50% growth inhibition (GI50) with NCI-H1299 came to 5 µM. Moreover, the outcome in assay [7], in assay [8], in assay [13] and in [16] was Active. For the same compound, the DC50 in assay [9] was 0.274 µM; in [14], 0.26 µM. In the assay with K562, the half-maximal inhibitory concentration (IC50) amounted to 2 µM. For the same compound, the Activity in [12] came to 100%.

(Values after ChEMBL document CHEMBL5543145, “Discovery of the First-in-Class G9a/GLP PROTAC Degrader” (J Med Chem, 2024).)
